Measurements reported in ChEMBL document CHEMBL4339201, “A survey of core replacements in indole-based HIV-1 attachment inhibitors” (Bioorg Med Chem Lett, 2019).

What was measured:
[1] = test system: Human immunodeficiency virus 1; assay: Antiviral activity against ENV pseudotyped HIV1 […] infected in human HeLa67 cells expressing CD4/CCR5[…] after 72 hrs by luciferase reporter gene assay; assay type: functional, organism-based; conditions: Human immunodeficiency virus 1, HeLa67, 72 h
[2] = Cytotoxicity against human MT2 cells assessed as decrease in cell viability; assay type: cell-based

| EC50 [1] [nM] | Structure (SMILES) | CC50 [2] [nM] |
| --- | --- | --- |
| 219 | C[C@@H]1CN(C(=O)c2ccccc2)CCN1C(=O)C(=O)c1cc2ccccc2[nH]1 | – |
| 4.4 | C[C@H]1CN(C(=O)c2ccccc2)CCN1C(=O)C(=O)c1ccc2ccccc2n1 | 166000 |
| 17 | C[C@@H]1CN(C(=O)c2ccccc2)CCN1C(=O)C(=O)c1c[nH]c2c1ccc1cccnc12 | 45000 |
| 27 | C[C@@H]1CN(C(=O)c2ccccc2)CCN1C(=O)C(=O)c1ccc2cc(C(=O)O)ccc2c1 | > 300000 |
| 798 | C[C@@H]1CN(C(=O)c2ccccc2)CCN1C(=O)C(=O)c1nc2ccccc2[nH]1 | > 300000 |
| 0.2 | CC1CN(C(=O)c2ccccc2)CCN1C(=O)C(=O)c1ccc2cc(O)ccc2n1 (stereo not given) | 210000 |
| 1.7 | CC1CN(C(=O)c2ccccc2)CCN1C(=O)C(=O)c1ccc2cc(Br)ccc2n1 (stereo not given) | 134000 |
| 12 | C[C@@H]1CN(C(=O)c2ccccc2)CCN1C(=O)C(=O)c1nc2ccccc2n1C | > 300000 |
| > 5000 | CC1CN(C(=O)c2ccccc2)CCN1C(=O)C(=O)c1cnc2ccccn12 (stereo not given) | > 300000 |
| 137 | O=C(C(=O)N1CCN(C(=O)c2ccccc2)CC1)c1ccc2cnccc2n1 | > 300000 |
| 56 | COc1cc(C(=O)C(=O)N2CCN(C(=O)c3ccccc3)C[C@H]2C)nc2ccccc12 | 96000 |
| 30 | C[C@@H]1CN(C(=O)c2ccccc2)CCN1C(=O)C(=O)c1ccc2cc(C#N)ccc2c1 | 102000 |
| 3060 | C[C@@H]1CN(C(=O)c2ccccc2)CCN1C(=O)C(=O)c1ccc2[nH]nnc2c1 | > 300000 |
| 2460 | O=C(C(=O)N1CCN(C(=O)c2ccccc2)CC1)c1nc2ccccc2[nH]1 | > 300000 |
| 11 | C[C@@H]1CN(C(=O)c2ccccc2)CCN1C(=O)C(=O)c1cn2c(n1)sc1ccccc12 | > 300000 |
| 1.2 | CC1CN(C(=O)c2ccccc2)CCN1C(=O)C(=O)c1ccc2ccccc2n1 (stereo not given) | 266000 |
| 407 | C[C@@H]1CN(C(=O)c2ccccc2)CCN1C(=O)C(=O)c1cc2cccn2cn1 | > 300000 |
| 2840 | O=C(C(=O)N1CCN(C(=O)c2ccccc2)CC1)c1cc2ccccc2s1 | 9000 |
| 0.03 | C[C@@H]1CN(C(=O)c2ccccc2)CCN1C(=O)C(=O)c1ccc2cc(-c3nccs3)ccc2c1 | – |
| 13 | O=C(C(=O)N1CCN(C(=O)c2ccccc2)CC1)c1ccc2ccccc2n1 | > 300000 |

| EC50 [1] [nM] | Structure (SMILES) | CC50 [2] [nM] |
| --- | --- | --- |
| – | O=C(C(=O)N1CCN(C(=O)c2ccccc2)CC1)c1c[nH]c2ccccc12 | 339000 |
| 655 | C[C@@H]1CN(C(=O)c2ccccc2)CCN1C(=O)C(=O)c1n[nH]c2ccccc12 | > 300000 |
| 108 | O=C(C(=O)N1CCN(C(=O)c2ccccc2)CC1)c1cnc2ccccc2n1 | > 300000 |
| 135 | O=C(C(=O)N1CCN(C(=O)c2ccccc2)CC1)c1ccc2ccccc2c1 | 94000 |
| 0.4 | CC1CN(C(=O)c2ccccc2)CCN1C(=O)C(=O)c1ccc2c(O)cccc2n1 (stereo not given) | 195000 |
| 358 | C[C@@H]1CN(C(=O)c2ccccc2)CCN1C(=O)C(=O)c1cc2sccc2s1 | > 300000 |
| > 5000 | O=C(C(=O)N1CCN(C(=O)c2ccccc2)CC1)c1ccc2cccnc2n1 | > 300000 |
| 11.9 | C[C@@H]1CN(C(=O)c2ccccc2)CCN1C(=O)C(=O)c1ccc2cc(C(N)=O)ccc2c1 | 189000 |
| 2.9 | COc1cccc2nc(C(=O)C(=O)N3CCN(C(=O)c4ccccc4)CC3C)ccc12 (stereo not given) | 200000 |
| 182 | O=C(C(=O)N1CCN(C(=O)c2ccccc2)CC1)c1cc2ccccc2cn1 | > 300000 |
| 734 | CC1CN(C(=O)c2ccccc2)CCN1C(=O)C(=O)c1nsc2ccccc12 (stereo not given) | 75000 |
| 2860 | O=C(C(=O)N1CCN(C(=O)c2ccccc2)CC1)c1ccc2cccnc2c1 | > 300000 |
| 4 | C[C@@H]1CN(C(=O)c2ccccc2)CCN1C(=O)C(=O)c1c[nH]c2ccccc12 | 200000 |
| 255 | O=C(C(=O)N1CCN(C(=O)c2ccccc2)CC1)c1ccc2[nH]ccc2c1 | > 250000 |
| > 5000 | O=C(C(=O)N1CCN(C(=O)c2ccccc2)CC1)c1cnn2ccccc12 | > 300000 |
| 3610 | O=C(C(=O)N1CCN(C(=O)c2ccccc2)CC1)c1ccc2nccnc2c1 | > 300000 |
| 4.8 | COc1ccc2cc(C(=O)C(=O)N3CCN(C(=O)c4ccccc4)CC3C)[nH]c2c1 (stereo not given) | 27000 |
| 2.4 | C[C@@H]1CN(C(=O)c2ccccc2)CCN1C(=O)C(=O)c1ccc2ccccc2c1 | 171000 |
| 561 | O=C(C(=O)N1CCN(C(=O)c2ccccc2)CC1)c1cc2ccccc2[nH]1 | > 300000 |
| 86 | C[C@@H]1CN(C(=O)c2ccccc2)CCN1C(=O)C(=O)c1ccc2scnc2c1 | > 300000 |

| EC50 [1] [nM] | Structure (SMILES) | CC50 [2] [nM] |
| --- | --- | --- |
| 52 | O=C(C(=O)N1CCN(C(=O)c2ccccc2)CC1)c1cn2c(n1)sc1ccccc12 | > 300000 |
| 34 | C[C@@H]1CN(C(=O)c2ccccc2)CCN1C(=O)C(=O)c1nc2ccccc2s1 | > 230000 |
| 0.2 | COc1ccc2nc(C(=O)C(=O)N3CCN(C(=O)c4ccccc4)CC3C)ccc2c1 (stereo not given) | 184000 |
| 0.1 | COc1ccc2cc(C(=O)C(=O)N3CCN(C(=O)c4ccccc4)C[C@H]3C)ccc2c1 | 41000 |
| 1.3 | C[C@@H]1CN(C(=O)c2ccccc2)CCN1C(=O)C(=O)c1ccc2cc(Br)ccc2c1 | 301000 |
| > 5000 | COc1cc(OC)c2cc(C(=O)C(=O)N3CCN(C(=O)c4ccccc4)CC3C)[nH]c2c1 (stereo not given) | 68000 |
| 1010 | CC1CN(C(=O)c2ccccc2)CCN1C(=O)C(=O)c1cccc2cc[nH]c12 (stereo not given) | 212000 |
| 0.16 | C[C@@H]1CN(C(=O)c2ccccc2)CCN1C(=O)C(=O)c1ccc2cc(C(=N)NO)ccc2c1 | 234000 |
| > 5000 | CC1CN(C(=O)c2ccccc2)CCN1C(=O)C(=O)c1cnc2ncccn12 (stereo not given) | > 300000 |
| 5.9 | CC1CN(C(=O)c2ccccc2)CCN1C(=O)C(=O)c1ccc2cc(F)ccc2n1 (stereo not given) | 258000 |
| 0.7 | C[C@@H]1CN(C(=O)c2ccccc2)CCN1C(=O)C(=O)c1ccc2ccccc2n1 | 198000 |
| > 5000 | O=C(C(=O)N1CCN(C(=O)c2ccccc2)CC1)c1nc2ccccc2o1 | > 300000 |
| 2320 | C[C@@H]1CN(C(=O)c2ccccc2)CCN1C(=O)C(=O)c1cc2sccc2[nH]1 | 106000 |
| 26 | C[C@H]1CN(C(=O)c2ccccc2)CCN1C(=O)C(=O)c1cnc2ccccc2n1 | 114000 |
| 2.6 | COc1ccc2nc(C(=O)C(=O)N3CCN(C(=O)c4ccccc4)C[C@H]3C)sc2c1 | 151000 |
| 764 | O=C(C(=O)N1CCN(C(=O)c2ccccc2)CC1)c1csc2ccccc12 | 141000 |
| > 5000 | COc1ccc2[nH]c(C(=O)C(=O)N3CCN(C(=O)c4ccccc4)CC3C)cc2c1 (stereo not given) | 33000 |
| 355 | O=C(C(=O)N1CCN(C(=O)c2ccccc2)CC1)c1cccc2ccccc12 | > 300000 |
| 4.6 | C[C@@H]1CN(C(=O)c2ccccc2)CCN1C(=O)C(=O)c1cnc2ccccc2n1 | > 300000 |
